Patent US20230265151A1, “GIP/GLP1 CO-AGONIST COMPOUNDS” (priority 2020, published 2023)
Where two headings read alike, the source gives them in different places.

Columns and labels:
hGLP-1R = hGLP-1R (Homo sapiens, UniProt P43220); assay: Functional cAMP formation (HTRF) in HEK-293 clonal cells expressing hGLP-1R, 0.1% bovine casein, without or with 1.0% human serum albumin; type: cell-based; parameters: expressed in transfected cells; conditions: for Emax: percent of maximal response to GLP-1(7-36)NH2; for EC50: hGLP-1R EC50, nM (SEM, n), cAMP, 0.1% bovine casein (no human serum albumin), geometric mean
Summary of the method: (§1)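 Cells were stimulated with peptide for 30 min at 37° C, then lysed in buffer carrying cAMP-d2 and anti-cAMP Eu3+-cryptate for a competitive HTRF read after at least 60 min at room temperature. The 665/620 nm ratio was converted to nM cAMP against a standard curve.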

[1] = target: T1, human GLP-1 receptor (hGLP-1R) (Homo sapiens, UniProt P43220); assay: [125I]-GLP-1 binding, SPA with membranes of HEK293 cells expressing hGLP-1R
T1 construct: expressed in transfected cells; crude membranes
Method: Two methods are used for the preparation of crude cell membranes.
Method 1: Frozen cell pellets are lysed on ice in hypotonic buffer containing 50 mM Tris HCl, pH 7.5, and Roche Complete™ Protease Inhibitors with EDTA. […] The homogenate is centrifuged at 4° C. at 1100 × g for 10 minutes. The supernatant is collected and stored on ice while the pellets are resuspended in homogenization buffer and rehomogenized as described above. The homogenate is centrifuged at 1100 × g for 10 minutes. The second supernatant is combined with the first supernatant and centrifuged at 35000 × g for 1 hour at 4° C. The resulting membrane pellet is resuspended in homogenization buffer containing protease inhibitors at approximately 1 to 3 mg/mL, quick frozen in liquid nitrogen and stored as aliquots in a -80° C. freezer until use.
The homogenate is centrifuged at 4° C. at 1800 × g for 15 minutes. The supernatant is collected and stored on ice while the pellets are resuspended in homogenization buffer (without DNAse I) and rehomogenized as described above. The homogenate is centrifuged at 1800 × g for 15 minutes. The second supernatant is combined with the first supernatant and centrifuged an additional time at 1800 × g for 15 minutes. The overall supernatant is then centrifuged at 25000 × g for 30 minutes at 4° C. The resulting membrane pellet is resuspended in homogenization buffer (without DNAse I) containing protease inhibitors at approximately 1 to 3 mg/mL and stored as aliquots in a -80° C. freezer until use.
The human GLP-1 receptor binding assay is performed using an SPA format with WGA beads. The binding buffer contains 25 mM HEPES, pH 7.4, 2.5 mM CaCl2, 1 mM MgCl2, 0.1% (w/v) bacitracin, 0.003% (w/v) TWEEN®-20, and Roche Complete™ Protease Inhibitors without EDTA.
Raw CPM data for concentration curves of peptides, Gcg, GLP-1, or GIP are converted to percent inhibition by subtracting nonspecific binding (binding in the presence of excess unlabeled Gcg, GLP-1, or GIP, respectively) from the individual CPM values and dividing by the total binding signal, also corrected by subtracting nonspecific binding. Data are analyzed using four-parameter (curve maximum, curve minimum, IC50, Hill slope) nonlinear regression routines (Genedata Screener, version 12.0.4, Genedata AG, Basal, Switzerland). […] Values for Ki are reported as the geometric mean, with error expressed as the standard error of the mean (SEM) and n is equal to the number of independent replicates (determined in assays performed on different days). Geometric Means are calculated as follows: […]
The Ki Ratio (Ki for native control peptide/Ki for test compound) at each receptor and each species is calculated. The Ki Ratio is a rapid indication of the apparent affinity of a peptide compared to the native control peptide.
n=⅟x means that only one value out of the total number of replicates (x) is used to express the mean. SEM is only calculated when n=2 or greater non-qualified results exist. Means are expressed as GeoMetric means with the standard error of the mean (SEM) and the number of replicates (n) indicated in parenthesis.

hGCGR = target: T2, hGCGR (Homo sapiens, UniProt P47871); assay: Functional cAMP formation (HTRF) in HEK-293 clonal cells expressing hGCGR, 0.1% bovine casein, without or with 1.0% human serum albumin; type: cell-based; conditions: hGCGR EC50, nM (SEM, n)
T2 construct: expressed in transfected cells
Summary of the method: as §1

hGIPR = target: T3, hGIPR (Homo sapiens, UniProt P48546); assay: Functional cAMP formation (HTRF) in HEK-293 clonal cells expressing hGIPR, 0.1% bovine casein, without or with 1.0% human serum albumin; type: cell-based; conditions: for EC50: hGIPR EC50, nM (SEM, n), cAMP
T3 construct: expressed in transfected cells
T3 sequence (P48546 22-466): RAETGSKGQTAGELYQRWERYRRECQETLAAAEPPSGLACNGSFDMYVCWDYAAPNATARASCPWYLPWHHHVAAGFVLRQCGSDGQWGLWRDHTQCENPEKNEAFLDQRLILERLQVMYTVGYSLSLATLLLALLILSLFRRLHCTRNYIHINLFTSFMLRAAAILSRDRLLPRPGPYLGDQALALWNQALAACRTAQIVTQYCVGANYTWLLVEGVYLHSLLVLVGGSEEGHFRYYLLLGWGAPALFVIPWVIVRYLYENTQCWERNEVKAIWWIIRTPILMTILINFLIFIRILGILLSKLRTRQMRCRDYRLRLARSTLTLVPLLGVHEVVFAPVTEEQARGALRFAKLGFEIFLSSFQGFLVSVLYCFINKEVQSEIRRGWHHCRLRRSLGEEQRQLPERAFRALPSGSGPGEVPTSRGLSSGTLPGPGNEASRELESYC
Summary of the method: as §1

[2] = cAMP, 37° C., 0.1% bovine casein (no human serum albumin), geometric mean
[3] = cAMP, 37° C., 0.1% bovine casein and 1.0% human serum albumin, geometric mean (SEM, n)
[4] = HEK293, read-out: hGIPR Emax, % ± SEM, cAMP, 37° C., 0.1% bovine casein and 1.0% human serum albumin, percent of maximal response to GIP(1-42)NH2
[5] = HEK293, read-out: hGIPR Emax, % ± SEM, cAMP, 37° C., 0.1% bovine casein, percent of maximal response to GIP(1-42)NH2, arithmetic mean
[6] = 37° C., 0.1% bovine casein (no human serum albumin), geometric mean

T2 sequence (P47871 26-477): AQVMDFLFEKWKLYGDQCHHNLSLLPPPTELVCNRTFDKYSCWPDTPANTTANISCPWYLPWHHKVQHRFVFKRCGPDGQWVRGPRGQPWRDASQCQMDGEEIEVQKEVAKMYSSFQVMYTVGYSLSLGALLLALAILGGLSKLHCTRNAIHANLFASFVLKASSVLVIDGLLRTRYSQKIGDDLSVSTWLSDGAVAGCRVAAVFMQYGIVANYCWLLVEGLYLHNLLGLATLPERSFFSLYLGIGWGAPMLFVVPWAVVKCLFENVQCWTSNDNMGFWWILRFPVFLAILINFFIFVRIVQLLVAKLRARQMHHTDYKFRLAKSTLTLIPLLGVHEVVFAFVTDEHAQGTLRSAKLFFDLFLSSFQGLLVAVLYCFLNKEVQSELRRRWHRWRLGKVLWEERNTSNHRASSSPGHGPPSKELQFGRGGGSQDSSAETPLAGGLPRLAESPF
T1 sequence (P43220 24-463): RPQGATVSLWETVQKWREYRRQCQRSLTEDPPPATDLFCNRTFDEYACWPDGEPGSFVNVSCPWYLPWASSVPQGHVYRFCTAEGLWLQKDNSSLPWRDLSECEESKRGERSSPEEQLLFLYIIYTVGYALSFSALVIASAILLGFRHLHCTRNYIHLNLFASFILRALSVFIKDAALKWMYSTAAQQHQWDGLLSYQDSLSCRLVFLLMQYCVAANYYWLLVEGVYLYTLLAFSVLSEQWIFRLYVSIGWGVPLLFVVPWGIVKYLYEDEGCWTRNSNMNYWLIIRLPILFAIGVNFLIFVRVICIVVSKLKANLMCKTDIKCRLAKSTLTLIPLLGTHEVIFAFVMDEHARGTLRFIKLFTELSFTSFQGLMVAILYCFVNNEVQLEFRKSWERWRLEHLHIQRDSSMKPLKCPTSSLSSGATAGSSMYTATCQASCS
hGLP-1R, sequence (P43220 24-463): as above

Row | Structure (SMILES) | Emax (hGLP-1R; HEK293, read-out: hGLP-1R Emax, % ± SEM, cAMP, 37° C., 0.1% bovine casein and 1.0% human serum albumin) | EC50 (hGLP-1R; 37° C.) | Ki [1] | EC50 (hGCGR; [2]) | EC50 (hGCGR; [3]) | Emax (hGIPR; [4]) | Emax (hGIPR; [5]) | EC50 (hGIPR; [6]) | Emax (hGLP-1R; HEK293, read-out: hGLP-1R Emax, % ± SEM, cAMP, 37° C., 0.1% bovine casein, arithmetic mean) | EC50 (hGIPR; 37° C., 0.1% bovine casein and 1.0% human serum albumin, geometric mean (SEM, n)) | EC50 (hGLP-1R; incubated at 37° C.) | EC50 (hGCGR; 0.1% bovine casein and 1.0% human serum albumin, 37° C., geometric mean) | EC50 (hGCGR; cAMP, incubated at 37° C., 0.1% bovine casein (no human serum albumin), geometric mean) | Emax (hGIPR; HEK293, read-out: hGIPR Emax, % ± SEM, 0.1% bovine casein and 1.0% human serum albumin, 37° C., percent of maximal response to GIP(1-42)NH2) | Emax (hGIPR; HEK293, read-out: hGIPR Emax, % ± SEM, percent of maximal response to GIP(1-42)NH2, 37° C., 0.1% bovine casein, arithmetic mean) | EC50 (hGIPR; incubated at 37° C., 0.1% bovine casein (no human serum albumin), geometric mean)
1 | CC[C@H](C)[C@H](NC(=O)[C@H](CC(C)C)NC(=O)[C@](C)(Cc1ccc(O)cc1)NC(=O)[C@H](CCCCNC(=O)CCOCCOCCOCCOCCNC(=O)CC[C@H](NC(=O)CCCCCCCCCOc1ccc(C(=O)O)cc1)C(=O)O)NC(=O)[C@@H](NC(=O)[C@H](Cc1ccccc1)NC(=O)[C@H](CCCN)NC(=O)C(C)(C)NC(=O)[C@H](CCC(N)=O)NC(=O)[C@H](C)NC(=O)[C@H](CCC(N)=O)NC(=O)[C@H](CCCN)NC(=O)[C@H](CC(=O)O)NC(=O)[C@H](CC(C)C)NC(=O)[C@](C)(CC(C)C)NC(=O)[C@@H](NC(=O)C(C)(C)NC(=O)[C@H](Cc1ccncc1)NC(=O)[C@H](CC(=O)O)NC(=O)[C@H](CO)NC(=O)[C@@H](NC(=O)[C@](C)(Cc1ccccc1F)NC(=O)[C@@H](NC(=O)CNC(=O)[C@H](CCC(=O)O)NC(=O)C(C)(C)NC(=O)[C@@H](N)Cc1ccc(O)cc1)[C@@H](C)O)[C@@H](C)O)[C@@H](C)CC)[C@@H](C)CC)C(=O)N[C@@H](CCCCNC(=O)CCOCCOCCOCCOCCNC(=O)CC[C@H](NC(=O)CCCCCCCCCOc1ccc(C(=O)O)cc1)C(=O)O)C(=O)NCC(=O)NCC(=O)N1CCC[C@H]1C(=O)N[C@@H](CO)C(=O)N[C@@H](CO)C(=O)NCC(=O)N[C@@H](C)C(=O)N1CCC[C@H]1C(=O)N1CCC[C@H]1C(=O)N1CCC[C@H]1C(=O)N[C@@H](CO)C(N)=O [Example 461] | 105% | 0.173 nM | 0.14 nM | > 10100 nM | > 10100 nM | 98.5% | 100% | 0.0103 nM |  |  |  |  |  |  |  | 
2 | CC[C@H](C)[C@H](NC(=O)[C@H](CC(C)C)NC(=O)[C@](C)(Cc1ccc(O)cc1)NC(=O)[C@H](CCCCNC(=O)COCCOCCNC(=O)COCCOCCNC(=O)CC[C@H](NC(=O)CCCCCCCCCOc1ccc(C(=O)O)cc1)C(=O)O)NC(=O)[C@@H](NC(=O)[C@H](Cc1ccccc1)NC(=O)[C@H](Cc1ccncc1)NC(=O)C(C)(C)NC(=O)[C@H](CCC(N)=O)NC(=O)[C@H](C)NC(=O)[C@H](CCC(N)=O)NC(=O)[C@H](CCCN)NC(=O)[C@H](CC(=O)O)NC(=O)[C@H](CC(C)C)NC(=O)[C@](C)(CC(C)C)NC(=O)[C@@H](NC(=O)C(C)(C)NC(=O)[C@H](Cc1ccncc1)NC(=O)[C@H](CC(=O)O)NC(=O)[C@H](CO)NC(=O)[C@@H](NC(=O)[C@](C)(Cc1ccccc1F)NC(=O)[C@@H](NC(=O)CNC(=O)[C@H](CCC(=O)O)NC(=O)C(C)(C)NC(=O)[C@@H](N)Cc1ccc(O)cc1)[C@@H](C)O)[C@@H](C)O)[C@@H](C)CC)[C@@H](C)CC)C(=O)N[C@@H](CCCCNC(=O)COCCOCCNC(=O)COCCOCCNC(=O)CC[C@H](NC(=O)CCCCCCCCCOc1ccc(C(=O)O)cc1)C(=O)O)C(=O)NCC(=O)NCC(=O)N1CCC[C@H]1C(=O)N[C@@H](CO)C(=O)N[C@@H](CO)C(=O)NCC(=O)N[C@@H](C)C(=O)N1CCC[C@H]1C(=O)N1CCC[C@H]1C(=O)N1CCC[C@H]1C(=O)N[C@@H](CO)C(N)=O [Example 493] |  | 0.184 nM | 0.25 nM | > 9950 nM | > 9950 nM | 94.6% | 105% | 0.0155 nM | 126% | 0.591 nM |  |  |  |  |  | 
3 | CC[C@H](C)[C@H](NC(=O)[C@H](CCCN)NC(=O)[C@H](CC(=O)O)NC(=O)[C@H](CC(C)C)NC(=O)[C@](C)(CC(C)C)NC(=O)[C@@H](NC(=O)C(C)(C)NC(=O)[C@H](Cc1ccncc1)NC(=O)[C@H](CC(=O)O)NC(=O)[C@H](CO)NC(=O)[C@@H](NC(=O)[C@](C)(Cc1ccccc1F)NC(=O)[C@@H](NC(=O)CNC(=O)[C@H](CCC(=O)O)NC(=O)C(C)(C)NC(=O)[C@@H](N)Cc1ccc(O)cc1)[C@@H](C)O)[C@@H](C)O)[C@@H](C)CC)C(=O)N[C@@H](C)C(=O)N[C@@H](CCC(N)=O)C(=O)NC(C)(C)C(=O)N[C@@H](CCC(=O)O)C(=O)N[C@@H](Cc1ccccc1)C(=O)N[C@H](C(=O)N[C@@H](CCCCNC(=O)COCCOCCNC(=O)COCCOCCNC(=O)CC[C@H](NC(=O)CCCCCCCCCOc1ccc(C(=O)O)cc1)C(=O)O)C(=O)N[C@@](C)(Cc1ccc(O)cc1)C(=O)N[C@@H](CC(C)C)C(=O)N[C@H](C(=O)N[C@@H](CCCCNC(=O)COCCOCCNC(=O)COCCOCCNC(=O)CC[C@H](NC(=O)CCCCCCCCCOc1ccc(C(=O)O)cc1)C(=O)O)C(=O)NCC(=O)NCC(=O)N1CCC[C@H]1C(=O)N[C@@H](CO)C(=O)N[C@@H](CO)C(=O)NCC(=O)N[C@@H](C)C(=O)N1CCC[C@H]1C(=O)N1CCC[C@H]1C(=O)N1CCC[C@H]1C(=O)N[C@@H](CO)C(N)=O)[C@@H](C)CC)[C@@H](C)CC [Example 246] |  |  | 0.557 nM |  |  |  |  |  |  |  | 0.441 nM | > 9950 nM | > 9950 nM | 91% | 96.9% | 0.0223 nM
